Test results published in ChEMBL document CHEMBL2380203, “Structure-activity relationship of cytochrome bc1 reductase inhibitor broad spectrum antifungal ilicicolin H” (Bioorg Med Chem Lett, 2013).
≈ marks a conversion by molar mass, not a printed value.

Columns and labels:
Candida albicans [1] = test: Antifungal activity against Candida albicans MY1055 assessed as growth inhibition after 24 hrs by liquid microdilution assay; format: functional; conditions: MY1055, 24 h
[2] = Inhibition of Candida albicans MY1055 NADH:cytochrome bc1 reductase in presence of 40% mouse plasma; format: cell-free
Candida albicans [3] = test: Ratio of IC50 for Candida albicans MY1055 NADH:cytochrome bc1 reductase in presence of 40% mouse plasma to IC50 for Candida albicans MY1055 NADH:cytochrome bc1 reductase in absence of mouse plasma
[4] = Inhibition of rat liver NADH:cytochrome bc1 reductase
[5] = Inhibition of Candida albicans MY1055 NADH:cytochrome bc1 reductase
Candida albicans [6] = test: Ratio of MIC for Candida albicans MY1055 in presence of 10% mouse plasma to MIC for Candida albicans MY1055 in absence of mouse plasma; format: functional
Candida albicans [7] = test: Antifungal activity against Candida albicans MY1055 assessed as growth inhibition after 24 hrs by liquid microdilution assay in presence of 10% mouse plasma; format: functional
Candida albicans [8] = test: Antifungal activity against Candida albicans MY1055 assessed as growth inhibition after 24 hrs by liquid microdilution assay in presence of 10% mouse plasma
[9] = Selectivity ratio of IC50 for Candida albicans MY1055 NADH:cytochrome bc1 reductase to IC50 for rat liver NADH:cytochrome bc1 reductase

SMILES | MIC (Candida albicans [1]) [ng/mL] | IC50 [2] [ng/mL] | Ratio IC50 (Candida albicans [3]) | IC50 [4] [ng/mL] | IC50 [5] [ng/mL] | Ratio (Candida albicans [6]) | MIC (Candida albicans [7]) [ng/mL] | MIC (Candida albicans [8]) [ng/mL] | Ratio IC50 [9]
C/C=C/[C@@H]1[C@H]2C[C@@H](C)CC[C@@H]2C(C)=C[C@H]1C(=O)c1c(O)c(-c2ccc(OC(=O)CCCN)cc2)c[nH]c1=O | 31 (≈ 0.0598 µM) | 30 | 150 | 45 (≈ 0.0868 µM) | 0.2 (≈ 0.000386 µM) |  |  |  | 
C/C=C/[C@@H]1[C@H]2C[C@@H](COC(C)=O)CC[C@@H]2C(C)=C[C@H]1C(=O)c1c(O)c(-c2ccc(OC(C)=O)cc2)c[nH]c1=O | 62 (≈ 0.116 µM) | 100 | 7 | > 800 | 15 (≈ 0.0281 µM) | 8 | 1000 |  | 
C/C=C/[C@@H]1[C@H]2C[C@@H](C)CC[C@@H]2C(C)=C[C@H]1C(=O)c1c(O)c(-c2ccc(OC(=O)/C=C/c3cnc[nH]3)cc2)c[nH]c1=O | 31 (≈ 0.056 µM) | 150 | 43 | 8 (≈ 0.0144 µM) | 1 (≈ 0.00181 µM) | 16 | 1000 |  | 
CC1=C[C@@H](C(=O)c2c(O)c(-c3ccc(O)cc3)c[nH]c2=O)[C@H]([C@@H]2OC2C)[C@H]2C[C@@H](C)CC[C@H]12 (stereo not given in full) | 625 (≈ 1.39 µM) | 1000 | 192 | 1000 (≈ 2.22 µM) | 5.2 (≈ 0.0116 µM) |  | > 1000 | > 1000 | 
C/C=C/[C@@H]1[C@H]2C[C@@H](COC(=O)C3CC3)CC[C@@H]2C(C)=C[C@H]1C(=O)c1c(O)c(-c2ccc(O)cc2)c[nH]c1=O | 31.3 (≈ 0.0605 µM) | 40 | 20 | 40 (≈ 0.0773 µM) | 1.2 (≈ 0.00232 µM) | 8 | 250 |  | 
C/C=C/[C@@H]1[C@H]2C[C@@H](C)CC[C@@H]2C(C)=C[C@H]1C(=O)c1c(O)c(-c2ccc(O)cc2)cn(CCN(CC)CC)c1=O | > 1000 | 5000 | 250 | > 1000 | 20 (≈ 0.0375 µM) |  | > 1000 |  | 
C/C=C/[C@@H]1[C@H]2C[C@@H](C)CC[C@@H]2C(C)=C[C@H]1C(=O)c1c(O)c(-c2ccc(OC(=O)CCCCN)cc2)c[nH]c1=O | 31 (≈ 0.0582 µM) | 30 | 300 | 40 (≈ 0.0751 µM) | 0.1 (≈ 0.000188 µM) |  |  |  | 
C/C=C/[C@@H]1[C@H]2C[C@@H](C)CC[C@@H]2C(C)=C[C@H]1C(=O)c1c(O)c(-c2ccc(O)cc2)c[nH]c1=O [ILICICOLIN H] | 20 (≈ 0.0461 µM) | 70 | 140 | 2000 (≈ 4.61 µM) | 0.5 (≈ 0.00115 µM) | >25 | > 1000 |  | > 1000
C/C=C/[C@@H]1[C@H]2C[C@@H](CO)CC[C@@H]2C(C)=C[C@H]1C(=O)c1c(O)c(-c2ccc(O)cc2)c[nH]c1=O | 250 (≈ 0.556 µM) |  |  | 400 (≈ 0.89 µM) | 400 (≈ 0.89 µM) |  |  |  | 
C/C=C/[C@@H]1[C@H]2C[C@@H](C)CC[C@@H]2C(C)=C[C@H]1C(=O)c1c(O)c(-c2ccc(OC(=O)C3CCCC3)cc2)c[nH]c1=O | 1000 (≈ 1.89 µM) |  |  | > 800 | 10 (≈ 0.0189 µM) |  |  |  | 
C/C=C/[C@@H]1[C@H]2C[C@@H](C)CC[C@@H]2C(C)=C[C@H]1C(=O)c1c(O)c(-c2ccc(OC)cc2)c[nH]c1=O | 250 (≈ 0.559 µM) |  |  | 200 (≈ 0.447 µM) | 3 (≈ 0.0067 µM) |  |  |  | 
C/C=C/[C@@H]1[C@H]2C[C@@H](C)CC[C@@H]2C(C)=C[C@H]1C(=O)c1c(O)c(-c2ccc(OCC(=O)OC(C)(C)C)cc2)cn(CC(=O)OC(C)(C)C)c1=O | > 5000 |  |  | 1600 (≈ 2.42 µM) | > 1600 |  |  |  | 
C/C=C/[C@@H]1[C@H]2C[C@@H](C)CC[C@@H]2C(C)=C[C@H]1C(=O)c1c(O)c(-c2ccc(OC(=O)Cc3ccccc3)cc2)c[nH]c1=O | 250 (≈ 0.453 µM) |  |  | 1000 (≈ 1.81 µM) | 0.5 (≈ 0.000906 µM) |  |  |  | 
C/C=C/[C@@H]1[C@H]2C[C@@H](C)CC[C@@H]2C(C)=C[C@H]1C(=O)c1c(O)c(-c2ccc(OC(=O)C3CC3)cc2)c[nH]c1=O | 62 (≈ 0.124 µM) |  |  | > 800 | 15 (≈ 0.0299 µM) |  |  |  | 
